Measurements from patent US20100234417A1, “THYROTROPIN RELEASING HORMONE RECEPTOR-OREXIN RECEPTOR HETERO-DIMERS/-OLIGOMERS” (DIMERIX BIOSCIENCE PTY LTD., priority 2006, published 2010).

What was measured:
[1] = system: thyrotropin releasing hormone receptor/orexin receptor hetero-dimer/-oligomer (TRHR with OxR1); assay: eBRET: TRHR/Rluc + barr2/Venus + OxR1 as IG3 in HEK293 cells; assay type: cell-based; conditions: OxR1, FIG. 6
Description: (§1) Briefly, referring to FIGS. 1 to 3, the IGs are provided in the form of the two receptors (TRHR and OxR). One of the two is attached to an RC (IG1-RC1, IG3). A second IG (IG2-RC2) is derived from a molecule that interacts with the receptors upon ligand binding (e.g. beta-arrestin, or a mutant thereof).
(§2) Cells were seeded in 6-well plates at a density of approximately 630,000 cells/well (HEK293FT) or approximately 150,000 cells/well (COS-7) and maintained at 37° C., 5% CO2 in Complete Media (DMEM containing 0.3 mg/ml glutamine, 100 IU/ml penicillin and 100 μg/ml streptomycin (Gibco)) supplemented with 10% fetal calf serum (FCS; Gibco). Transient transfections were carried out 24 h after seeding using GeneJuice (Novagen) or Metafectene (Biontex) according to manufacturer instructions. 24 h post-transfection, cells were washed with PBS, detached using 0.05% trypsin/0.53 mM EDTA, resuspended in HEPES-buffered phenol red free Complete Media containing 5% FCS and added to a poly-L-lysine-coated white microplate (Nunc). 48 h post-transfection, eBRET assays were carried out following pre-incubation of cells with EnduRen™ (Promega) at a final concentration of 30-40 μM, at 37° C., 5% CO2 for 2 h. For original BRET studies, the HEPES-buffered phenol red free Complete Media was replaced with PBS and coelenterazine h (Molecular Probes) added to a final concentration of 5 μM immediately prior to commencing the assay. […] Filtered light emissions were sequentially measured for 3-5 s in each of the ‘donor wavelength window’ (400-475 nm) and ‘acceptor wavelength window’ (>500 nm for EGFP or 520-540 nm for EYFP, Topaz (TYFP) or Venus). The BRET signal observed between interacting proteins is normalized by subtracting the background BRET ratio. […] In this case, data are shown as ‘fluorescence/luminescence’ being the ratio of light emission through the ‘acceptor wavelength window’ over the 400-475 nm emission for a particular cell sample. Unless otherwise stated, BRET signals were measured in 96-well microplates. […]

[2] = system: thyrotropin releasing hormone receptor/orexin receptor hetero-dimer/-oligomer (TRHR with OxR2); assay: eBRET/BRET detection of TRHR-OxR2 association: TRHR/Rluc + tagged beta-arrestin + OxR2 as IG3 in HEK293 cells; assay type: cell-based; conditions: OxR2, FIG. 6
Description: as §1
as §2, with “In the following examples, the first calculation will be used, unless the signal is described as the ‘ligand-induced BRET ratio’. […] In” for “In”
Cells not pretreated with antagonist were pretreated with PBS instead for the same amount of time. […]

[3] = system: animals studied (narcolepsy); conditions: cited from earlier work
[4] = 10^−6M SB-334867-A approx. 40 minutes before 10^−6M OxA
[5] = 10^−6M SB-334867-A approx. 40 minutes before 10^−6M TRH and OxA
[6] = dose- and time-dependent manner

SMILES	effect of antagonist pretreatment on OxA-induced eBRET signal [1, 4]	effect of antagonist pretreatment on TRH + OxA-induced eBRET signal [1, 5]	effect of antagonist pretreatment on OxA-induced eBRET signal [2, 4]	effect of antagonist pretreatment on TRH + OxA-induced eBRET signal [2, 5]	rapid eye movement (REM) sleep [3, 6]	slow wave sleep (SWS) [3, 6]	cataplexy ([3]; in most of the animals studied)
Cc1nc2ccc(NC(=O)Nc3ccnc4cccnc34)cc2o1.Cl [SB-334867-A, 1-(2-methylbenzoxazol-6-yl)-3-[1,5]naphthyridin-4-yl urea hydrochloride]	reduced	reduced	not affected	did not differ	–	–	–
CN1C(=O)C[C@@H](C(=O)N[C@@H](Cc2c[nH]cn2)C(=O)N2CCC[C@H]2C(N)=O)NC1=O.O.O.O.O [TA-0910]	–	–	–	–	significantly reduced	significantly reduced	completely suppressed
